Among the data in ChEMBL document CHEMBL1144088, “Potential antipsoriatic agents: lapacho compounds as potent inhibitors of HaCaT cell growth” (J Nat Prod, 1999) are IC50 and Activity values, retold here.

Data set [1] concerns HaCaT. The data set is described as follows: Antiproliferative activity against human HaCaT cells. Format: cell-based.
The test system of data set [2] is HaCaT. Description: Cytotoxicity against human HaCaT cells assessed as LDH release at 2 uM. Format: cell-based.

On to `O=C1C=C(O)c2cccc(O)c2C1=O`, for which, in the data set on HaCaT [1], the IC50 is greater than 10 µM. For `CC(O)c1cc2c(o1)C(=O)c1ccccc1C2=O` (configuration not stated), in the data set with HaCaT [1], it took 3.7 µM to reach half-maximal inhibition (IC50). This counts as single-digit micromolar. Molecule `CC/C=C/C1=C(O)C(=O)c2c(O)cccc2C1=O` registered an IC50 with HaCaT [1] greater than 10 µM. Turning to `CCc1cc2c(o1)C(=O)c1c(O)cccc1C2=O`, in the data set on HaCaT [1], it took 3 µM to reach half-maximal inhibition (IC50).

Regarding `CC(=O)c1cc2c(o1)C(=O)c1c(O)cccc1C2=O`, in the data set on HaCaT [2], the Activity was found to be 346 mU. Also, the IC50 with HaCaT [1] is 0.3 µM.

For the molecule `CCc1cc2c(o1)-c1cccc(O)c1C(=O)C2=O`, the Activity in the data set with HaCaT [2] was determined as 235 mU. This molecule had an IC50 with HaCaT [1] of 0.9 µM.

On to `CC1(C)CCC2=C(O1)C(=O)c1ccccc1C2=O` [ALPHA-LAPACHONE], for which the midpoint of inhibition with HaCaT [1], the IC50, lay at 10 µM.

Take `O=C1c2c(O)cccc2Cc2cccc(O)c21` [ANTHRALIN]: the Activity with HaCaT [2] is 294 mU. The molecule `CC1(C)C=CC2=C(O1)C(=O)c1ccccc1C2=O` [DEHYDRO-ALPHA-LAPACHONE] displayed an IC50 with HaCaT [1] greater than 10 µM. Molecule `C=C(C)C1CC2=C(O1)C(=O)c1ccccc1C2=O` (stereo not drawn) [DEHYDROISO-ALPHA-LAPACHONE] came in with an IC50 in the data set on HaCaT [1] of 4.3 µM. This counts as single-digit micromolar.

In the data set with HaCaT [1], `CC(C)=CCC1=C(O)C(=O)c2ccccc2C1=O` [LAPACHOL] gave an IC50 greater than 10 µM. On to `CC1(C)CCC2=C(O1)c1ccccc1C(=O)C2=O` [LAPACHONE], for which the Activity with HaCaT [2] is 329 mU. The molecule further had an IC50 with HaCaT [1] of 0.7 µM. For `CC(=O)c1cc2c(o1)C(=O)c1ccccc1C2=O` [NAPABUCASIN], the Activity with HaCaT [2] is listed as 331 mU. Further, the midpoint of inhibition in the data set on HaCaT [1], the IC50, lay at 0.5 µM.

One may read the IC50 as the concentration at which inhibition is half-maximal. A lower IC50 goes with inhibition by little substance.
